Source: patent US20240327411A1, “SIRT6 ACTIVATORS” (The Board of Regents of The University of Texas System, priority 2022, published 2024)

Tests used:
BV2 cells = assay: LPS-induced inflammatory gene mRNA expression in BV2 cells, q-PCR; type: cell-based, murine
Sirt6 [1] = molecular target: T1, Sirt6 (Homo sapiens, UniProt Q8N6T7); assay: Nucleosome test: Sirt6-dependent H3K9 deacetylation of nucleosomes from HEK293T cells, Western blot; type: biochemical; settings: 100 μM, 30° C., 60 minutes
Method: (§1) . Nucleosomes extracted from HEK293T cells were incubated with 100 μM of selected compounds or Vehicle at 30° C. for 60 minutes. Acetylated H3K9 and total H3 were detected by Western blot. The level of acetylated H3K9 was quantified by Image Lab software. FIGS. 5B and 5C show the cell viability which was assessed by MTT assay. R28 cells were treated with 30 μM or 100 μM compounds for 24 hours. Data were presented as mean±SEM. The experiment was repeated at least three times. ***p<0.001; ****p<0.0001.
Next, effects of selected compounds were explored for Sirt6-dependent deacetylation of complete nucleosomes extracted from human embryonic kidney (HEK) 293T cells, as nucleosomes represent more physiologically relevant substrates. […]. Briefly, HEK 293T cells in 100 mm dish were lysed with lysis buffer supplemented with PIC and PMSF for 30 min. After centrifugation for 10 min at 5000 rpm at 4° C., supernatant was removed and nuclei pellet was resuspended with digestion buffer supplemented with PIC and PMSF for 5 min at 37° C. Working enzymatic sharing cocktail was added to digest the chromatin, and EDTA was added after incubation to stop the digestion. Digested nucleosome was obtained in the supernatant after centrifugation for 10 min at 15000 rpm at 4° C. and the concentration was quantified by measuring the absorbance at […]. 20 μg nucleosome was incubated in solution (1× buffer, 0.5 μL recombinant Sirt6 and […] NAD, from SIRT6 ACTIVITY ASSAY KIT) for 60 min. To test the effects of the compounds on Sirt6 activity, corresponding compound or DMSO control was added before incubation. The reaction mixture was analyzed by Western blot.
Proteins were extracted from cells with PIERCE RIPA BUFFER (89901, ThermoFisher Scientific), and protein concentration was determined using PIERCE BCA PROTEIN ASSAY KIT (23225, ThermoFisher Scientific). Equal amounts of protein were loaded and separated by SDS-PAGE gel. Next, separated proteins were transferred onto Nitrocellulose Blotting Membranes (A29457237, GE Healthcare Life science), and then the membranes were blocked by 5% non-fat dry milk. After incubation with corresponding primary antibodies against H3K9ac, H3 and Sirt6 at a 1:1000 dilution, or α-tubulin at a 1:5000 dilution, goat anti-mouse or goat anti-rabbit secondary antibodies at a 1:5000 dilution were applied. Finally, membranes were incubated with enhanced chemiluminescent and protein bands were detected by CHEMIDOC imaging system (Bio-Rad). Image-Lab software was used to analyze the intensities of the protein bands.

Sirt6 [2] = molecular target: T1, Sirt6; assay: Sirt6-dependent peptide deacetylation, FLUOR DE LYS / Sirt6 fluorometric activity kit; type: biochemical; settings: mean ± SD, at least two independent experiments
Method: (§2) Sirt6/Sirt1/Sirt2/Sirt3 activity was tested by Activity Assay Kits (Abcam) according to the manufacturer's instruction with minor modification. […] All experiments were conducted at room temperature.

SARS-CoV-2 = assay: microbe, parasite or virus in culture; type: cell-based
A549-hACE2 cells = assay: Cell viability assay in A549-hACE2 cells; settings: 50 μM, 48 h
Sirt3 = molecular target: T2, Sirt3 (Homo sapiens, UniProt Q9NTG7); assay: Sirt3 deacetylation activity assay kit; settings: time course, FIG. 3
T2 sequence (Q9NTG7 1-399): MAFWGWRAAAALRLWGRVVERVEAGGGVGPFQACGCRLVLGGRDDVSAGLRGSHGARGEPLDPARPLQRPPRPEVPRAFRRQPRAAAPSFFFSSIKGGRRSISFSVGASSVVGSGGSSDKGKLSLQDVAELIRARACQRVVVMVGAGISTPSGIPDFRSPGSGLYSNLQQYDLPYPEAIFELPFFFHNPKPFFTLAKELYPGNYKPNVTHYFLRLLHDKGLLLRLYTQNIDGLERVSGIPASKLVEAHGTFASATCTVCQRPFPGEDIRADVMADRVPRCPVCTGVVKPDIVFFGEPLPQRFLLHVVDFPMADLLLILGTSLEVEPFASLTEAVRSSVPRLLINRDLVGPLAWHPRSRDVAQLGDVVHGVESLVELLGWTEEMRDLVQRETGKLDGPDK
Method: as §2

[3] = system: retinal precursor cells (R28); assay: MTT cell viability assay in R28 cells; type: cell-based; settings: 30 μM, 24 hours
Method: as §1, with “FIGS. 5A-5C: FIGS. 5A-5C display the deacetylation effect and cytotoxicity of selected compounds. […] Nucleosomes” for “. Nucleosomes”
R28 cells were seeded in 96 well plates at a density of 1×10^4/well overnight, then treated with compounds for 24 h. MTT (MilliporeSigma) was added to cells (20 μL/well) and incubated for 3.5 h. After medium was removed, 100 μL dimethyl sulfoxide (DMSO) was added into each well. Absorbance was measured at 540 nm using a microplate reader.

Sirt1 = molecular target: T3, Sirt1 (Homo sapiens, UniProt Q96EB6); assay: Sirt1 deacetylation activity assay kit; settings: time course, FIG. 3
T3 sequence (Q96EB6 1-747): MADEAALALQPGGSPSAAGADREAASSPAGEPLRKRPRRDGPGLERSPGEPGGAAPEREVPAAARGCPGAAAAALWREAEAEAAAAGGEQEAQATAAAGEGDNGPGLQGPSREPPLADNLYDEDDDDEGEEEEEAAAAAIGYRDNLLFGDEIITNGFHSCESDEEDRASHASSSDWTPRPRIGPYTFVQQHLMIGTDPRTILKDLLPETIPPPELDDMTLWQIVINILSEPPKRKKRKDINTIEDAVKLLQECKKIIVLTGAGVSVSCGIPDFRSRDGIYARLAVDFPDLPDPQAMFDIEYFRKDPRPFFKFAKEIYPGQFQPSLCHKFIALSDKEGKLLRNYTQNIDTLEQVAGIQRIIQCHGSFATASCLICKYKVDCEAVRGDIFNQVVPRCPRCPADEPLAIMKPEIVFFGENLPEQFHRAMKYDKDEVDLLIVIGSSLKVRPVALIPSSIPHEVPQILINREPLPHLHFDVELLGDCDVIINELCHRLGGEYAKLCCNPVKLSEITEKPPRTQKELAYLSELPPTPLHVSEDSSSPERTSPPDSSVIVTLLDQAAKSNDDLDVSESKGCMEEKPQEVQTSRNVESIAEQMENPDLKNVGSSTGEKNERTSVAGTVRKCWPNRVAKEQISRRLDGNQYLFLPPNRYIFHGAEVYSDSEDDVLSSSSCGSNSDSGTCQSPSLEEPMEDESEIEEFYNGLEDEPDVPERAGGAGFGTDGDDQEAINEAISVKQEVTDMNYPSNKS
Method: as §2

T1 sequence (Q8N6T7 whole entry): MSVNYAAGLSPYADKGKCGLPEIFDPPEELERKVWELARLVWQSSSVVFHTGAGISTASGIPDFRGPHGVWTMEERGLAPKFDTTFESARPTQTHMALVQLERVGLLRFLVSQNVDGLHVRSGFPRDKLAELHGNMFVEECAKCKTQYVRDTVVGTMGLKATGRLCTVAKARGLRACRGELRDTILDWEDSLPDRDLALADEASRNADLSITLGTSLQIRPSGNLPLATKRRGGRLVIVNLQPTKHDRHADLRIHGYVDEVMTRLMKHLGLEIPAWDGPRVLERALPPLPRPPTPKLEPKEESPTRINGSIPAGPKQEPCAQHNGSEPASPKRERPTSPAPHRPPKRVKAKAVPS

With `CN(C)CCN1CCN(c2ncccc2C2Nc3ccccc3-n3cccc32)CC1` (stereo not drawn) [Compound 38, 2-(4-(3-(4,5-Dihydropyrrolo[1,2-a]quinoxalin-4-yl)pyridin-2-yl)piperazin-1-yl)-N,N-dimethylethan-1-amine] the “LPS-induced expression of IL-1β, IL-6, MCP-1, and TNFα” value (BV2 cells; BV2 cells, 30 μM pretreatment 30 minutes, 100 ng/mL LPS 6 hours, mRNA) was “strongly inhibited”, the ICAM-1 induction (BV2 cells; BV2 cells, 30 μM, 100 ng/mL LPS 6 hours, mRNA) was “slight inhibition” and the “LPS-induced proinflammatory cytokine/chemokine production” value (BV2 cells; summary statement) was “strongly repressed”. For the same molecule, the “acetylation of H3K9 in the nucleosome test” value (Sirt6 [1]) was “significantly decreased the acetylation of H3K9”, the “Activation Fold 30 μM” value (Sirt6 [2]; compound at 30 μM) was 3.83 ± 0.46 fold and the “Activation Fold 100 μM” value (Sirt6 [2]; compound at 100 μM) was 7.38 ± 0.6 fold. For the same molecule, the “potency in inhibiting SARS-CoV-2 infection (in words)” value (SARS-CoV-2) was “micromolar potency”, the EC50 (SARS-CoV-2; Severe acute respiratory syndrome coronavirus 2, 48 h, read-out: EC50, SARS-CoV-2 infection) was 9.3 µM and the “cytotoxicity at the highest tested concentration” value (A549-hACE2 cells) was “none of these compounds exhibited significant cytotoxicity”. The “effect on Sirt3 deacetylation” value (Sirt3) was “no significant effects”, the “toxicity on retinal precursor cells (R28)” value [3] was “no obvious toxicity” and the “effect on Sirt1 deacetylation” value (Sirt1) was “no significant effects”.
